target: T1, Purified ERAP1 (37-941)-10His (ERAP1) (Homo sapiens, UniProt Q9NZ08); assay: ERAP1 mediated hydrolysis of an amide substrate (10-mer inhibition assay), biochemical system; details: 10-mer substrate, 23° C., 1 h, excitation 279 nm / emission 355 nm; read-out: IC50 vs Decapeptide WRVYEKC(Dnp)ALK-acid (where Dnp is Dinitrophenyl maleimide) (10-mer)
T1 construct: Purified ERAP1 (37-941)-10His (ERAP1)
Procedure: However, as ERAP1 hydrolyses the N-terminal amide bond and tryptophan is released this internal quenching is lost and the reaction is monitored by the increase in tryptophan fluorescence over the course of the assay. For the purposes of this application this assay is referred to as the “10mer inhibition assay” and compound potencies are calculated and expressed as IC50 as would be familiar to a person skilled in the art.
Biological Assay 1: ERAP1 Mediated Hydrolysis of an Amide Substrate Measured in a Biochemical System
Decapeptide WRVYEKC(Dnp)ALK-acid (where Dnp is Dinitrophenyl maleimide) (10-mer) L-Leucine 7-amido-4-methylcoumarin (L-AMC)
12.5 μL ERAP1 enzyme in 1×AB was combined with 250 nL test compound in DMSO. […] For detection, plates were read at excitation 365 nm and emission 442 nm (L-AMC) or excitation 279 nm and emission 355 nm (10-mer).

T1 sequence (Q9NZ08 37-941): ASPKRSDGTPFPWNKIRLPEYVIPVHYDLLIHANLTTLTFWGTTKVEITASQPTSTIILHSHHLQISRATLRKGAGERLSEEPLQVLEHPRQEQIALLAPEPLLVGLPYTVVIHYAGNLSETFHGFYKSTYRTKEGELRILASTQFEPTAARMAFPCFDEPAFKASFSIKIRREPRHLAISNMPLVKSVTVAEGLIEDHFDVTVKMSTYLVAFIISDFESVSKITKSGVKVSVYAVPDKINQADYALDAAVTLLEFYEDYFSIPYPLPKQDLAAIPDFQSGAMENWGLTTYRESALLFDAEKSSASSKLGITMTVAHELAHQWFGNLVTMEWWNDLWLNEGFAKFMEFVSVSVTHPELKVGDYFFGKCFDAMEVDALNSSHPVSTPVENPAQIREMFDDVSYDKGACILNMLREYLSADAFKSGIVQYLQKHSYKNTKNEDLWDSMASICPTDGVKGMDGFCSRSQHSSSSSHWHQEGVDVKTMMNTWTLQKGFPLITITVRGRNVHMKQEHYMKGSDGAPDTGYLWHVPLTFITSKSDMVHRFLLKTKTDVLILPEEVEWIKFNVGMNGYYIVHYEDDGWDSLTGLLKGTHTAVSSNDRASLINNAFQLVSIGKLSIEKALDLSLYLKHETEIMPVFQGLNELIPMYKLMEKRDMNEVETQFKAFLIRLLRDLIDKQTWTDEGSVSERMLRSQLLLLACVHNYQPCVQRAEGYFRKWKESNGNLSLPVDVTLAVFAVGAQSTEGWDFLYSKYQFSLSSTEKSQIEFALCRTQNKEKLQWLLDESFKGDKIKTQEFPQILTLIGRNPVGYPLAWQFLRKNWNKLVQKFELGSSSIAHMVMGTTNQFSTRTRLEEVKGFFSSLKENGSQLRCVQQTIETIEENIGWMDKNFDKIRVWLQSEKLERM

Structure (SMILES)	IC50
COc1ccc(C(=O)O)cc1S(=O)(=O)Nc1cc(C(F)(F)F)ccc1N1CCN(C(C)=O)CC1 [Example 34, 3-(N-(2-(4-acetylpiperazin-1-yl)-5-(trifluoromethyl)phenyl)sulfamoyl)-4-methoxybenzoic acid]	> 5000 nM
COc1ccc(C(=O)O)cc1S(=O)(=O)Nc1cc(C(F)(F)F)ccc1N1CCC(O)CC1 [Example 35, 3-(N-(2-(4-hydroxypiperidin-1-yl)-5-(trifluoromethyl)phenyl)sulfamoyl)-4-methoxybenzoic acid]	< 500 nM
COc1ccc(C(=O)O)cc1S(=O)(=O)Nc1cc(C(F)(F)F)ccc1N1CCC(O)C1 (stereo not shown) [Example 36, 3-(N-(2-(3-hydroxypyrrolidin-1-yl)-5-(trifluoromethyl)phenyl)sulfamoyl)-4-methoxybenzoic acid]	< 5000 nM
COc1ccc(C(=O)O)cc1S(=O)(=O)Nc1cc(C(F)(F)F)ccc1N1CC(O)C1 [Example 37, 3-(N-(2-(3-hydroxyazetidin-1-yl)-5-(trifluoromethyl)phenyl)sulfamoyl)-4-methoxybenzoic acid]	< 5000 nM
COc1ccc(C(=O)O)cc1S(=O)(=O)Nc1cc(C(F)(F)F)ccc1N1CCC(C)(C)C1 [Example 39, 3-(N-(2-(3,3-dimethylpyrrolidin-1-yl)-5-(trifluoromethyl)phenyl)sulfamoyl)-4-methoxybenzoic acid]	< 5000 nM
COc1ccc(C(=O)O)cc1S(=O)(=O)Nc1cc(C(F)(F)F)ccc1N1CCN2CCC[C@@H]2C1 [Example 40, (R)-3-(N-(2-(hexahydropyrrolo[1,2-a]pyrazin-2(1H)-yl)-5-(trifluoromethyl)phenyl)sulfamoyl)-4-methoxybenzoic acid]	< 5000 nM
COc1ccc(C(=O)O)cc1S(=O)(=O)Nc1cc(C(F)(F)F)ccc1N1CCCCC1=O [Example 41, 4-methoxy-3-(N-(2-(2-oxopiperidin-1-yl)-5-(trifluoromethyl)phenyl)sulfamoyl)benzoic acid]	< 500 nM
Cc1ccc(C(=O)O)cc1S(=O)(=O)Nc1cc(C(F)(F)F)ccc1N1CCCOCC1 [Example 42, 3-(N-(2-(1,4-oxazepan-4-yl)-5-(trifluoromethyl)phenyl)sulfamoyl)-4-methylbenzoic acid]	> 5000 nM
CCc1ccc(C(=O)O)cc1S(=O)(=O)Nc1cc(C(F)(F)F)ccc1N1CCCOCC1 [Example 43, 3-(N-(2-(1,4-oxazepan-4-yl)-5-(trifluoromethyl)phenyl)sulfamoyl)-4-ethylbenzoic acid]	< 500 nM
COc1ccc(C(=O)O)cc1S(=O)(=O)Nc1cc(C(F)(F)F)ccc1N1CCCC1c1cc(C)no1 (stereo not shown) [Example 46, 4-methoxy-3-(N-(2-(2-(3-methylisoxazol-5-yl)pyrrolidin-1-yl)-5-(trifluoromethyl)phenyl)sulfamoyl)benzoic acid]	< 5000 nM
COc1ccc(C(=O)O)cc1NS(=O)(=O)c1cc(C(F)(F)F)ccc1N1CCCCC1 [Example 49, 4-methoxy-3-((2-(piperidin-1-yl)-5-(trifluoromethyl)phenyl)sulfonamido)benzoic acid]	< 500 nM
COc1ccc(C(=O)O)cc1NS(=O)(=O)c1cc(C(F)(F)F)ccc1N(C)C [Example 51, 3-((2-(dimethylamino)-5-(trifluoromethyl)phenyl)sulfonamido)-4-methoxybenzoic acid]	< 500 nM
COc1ccc(C(=O)O)cc1NS(=O)(=O)c1cc(C(F)(F)F)ccc1N1CCOCC1 [Example 52, 4-methoxy-3-((2-morpholino-5-(trifluoromethyl)phenyl)sulfonamido)benzoic acid]	< 5000 nM
COc1ccc(C(=O)O)cc1S(=O)(=O)Nc1cc(C(F)(F)F)ccc1N1CCCCC1 [Example 54, 4-methoxy-3-(N-(2-(piperidin-1-yl)-5-(trifluoromethyl)phenyl)sulfamoyl)benzoic acid]	< 500 nM
CC(C)c1ccc(C(=O)O)cc1S(=O)(=O)Nc1cc(C(F)(F)F)ccc1N1CCCCCC1 [Example 55, 3-(N-(2-(azepan-1-yl)-5-(trifluoromethyl)phenyl)sulfamoyl)-4-isopropylbenzoic acid]	< 500 nM
O=C(O)c1cc(F)cc(S(=O)(=O)Nc2cc(C(F)(F)F)ccc2N2CCCCC2)c1 [Example 59, 3-fluoro-5-(N-(2-(piperidin-1-yl)-5-(trifluoromethyl)phenyl)sulfamoyl)benzoic acid]	< 500 nM
CCc1ccc(C(=O)O)cc1S(=O)(=O)Nc1cc(C(F)(F)F)ccc1N1CCCCCC1 [Example 61, 3-(N-(2-(azepan-1-yl)-5-(trifluoromethyl)phenyl)sulfamoyl)-4-ethylbenzoic acid]	> 5000 nM
Cc1ccc(C(=O)O)cc1S(=O)(=O)Nc1cc(C(F)(F)F)ccc1N1CCCCCC1 [Example 62, 3-(N-(2-(azepan-1-yl)-5-(trifluoromethyl)phenyl)sulfamoyl)-4-methylbenzoic acid]	< 500 nM
COc1ccc(-c2nn[nH]n2)cc1NS(=O)(=O)c1cc(C(F)(F)F)ccc1N1CCCCC1 [Example 63, N-(2-methoxy-5-(tetrazol-5-yl)phenyl)-2-(piperidin-1-yl)-5-(trifluoromethyl) benzenesulfonamide]	< 5000 nM
COc1ccc(C(=O)O)cc1S(=O)(=O)Nc1ccc(Cl)cc1N1CCCCC1 [Example 65, 3-(N-(4-chloro-2-(piperidin-1-yl)phenyl)sulfamoyl)-4-methoxybenzoic acid]	< 500 nM
COc1ccc(C(=O)O)cc1S(=O)(=O)Nc1cc(Cl)ccc1N1CCCCC1 [Example 66, 3-(N-(5-chloro-2-(piperidin-1-yl)phenyl)sulfamoyl)-4-methoxybenzoic acid]	< 500 nM
Cc1ccc(C(=O)O)cc1S(=O)(=O)Nc1cc(C(F)(F)F)ccc1N1CCCCC1 [Example 67, 4-methyl-3-(N-(2-(piperidin-1-yl)-5-(trifluoromethyl)phenyl)sulfamoyl)benzoic acid]	< 500 nM
COc1ccc(C(=O)O)cc1S(=O)(=O)Nc1cc(C(F)(F)F)ccc1N1CCCCCC1 [Example 68, 3-(N-(2-(azepan-1-yl)-5-(trifluoromethyl)phenyl)sulfamoyl)-4-methoxybenzoic acid]	< 500 nM
Cc1ccc(S(=O)(=O)Nc2cc(C(F)(F)F)ccc2N2CCCCC2)cc1C(=O)O [Example 70, 2-methyl-5-(N-(2-(piperidin-1-yl)-5-(trifluoromethyl)phenyl)sulfamoyl)benzoic acid]	< 5000 nM
COc1ccc(C(=O)O)cc1S(=O)(=O)Nc1cc(C(F)(F)F)ccc1N1CCOCC1 [Example 72, 4-methoxy-3-(N-(2-morpholino-5-(trifluoromethyl)phenyl)sulfamoyl)benzoic acid]	< 500 nM
COc1ccc(C(=O)O)cc1S(=O)(=O)Nc1cc(C(F)(F)F)ccc1N1CCCC1 [Example 75, 4-methoxy-3-(N-(2-(pyrrolidin-1-yl)-5-(trifluoromethyl)phenyl)sulfamoyl)benzoic acid]	< 5000 nM
COc1ccc(C(=O)O)cc1S(=O)(=O)Nc1cc(C(F)(F)F)ccc1N(C)C [Example 77, 3-(N-(2-(dimethylamino)-5-(trifluoromethyl)phenyl)sulfamoyl)-4-methoxybenzoic acid]	< 5000 nM
O=C(O)c1cc(Cl)cc(S(=O)(=O)Nc2cc(C(F)(F)F)ccc2N2CCCCC2)c1 [Example 80, 3-chloro-5-(N-(2-(piperidin-1-yl)-5-(trifluoromethyl)phenyl)sulfamoyl)benzoic acid]	< 5000 nM

From patent publication US12485169B2, “Compounds” (GREY WOLF THERAPEUTICS LIMITED, priority 2018, dated 2025)
